Measurements from ChEMBL document CHEMBL5465560, “Selectivity Literature for EUbOPEN Chemogenomic Library” (2024).
Each block holds one molecule with its values, some of them ahead of it.

Experiments:
[1] = biological target: Vascular endothelial growth factor receptor 2 (Homo sapiens, UniProt P35968); experiment: Selectivity interaction (KinomeScan (DiscoverX)) EUB0000607a KDR; conditions: at 10 µM
[2] = biological target: T1, Mitogen-activated protein kinase 15 (Homo sapiens) (UniProt Q8TD08); conditions: at 10 µM
T1 sequence (whole entry): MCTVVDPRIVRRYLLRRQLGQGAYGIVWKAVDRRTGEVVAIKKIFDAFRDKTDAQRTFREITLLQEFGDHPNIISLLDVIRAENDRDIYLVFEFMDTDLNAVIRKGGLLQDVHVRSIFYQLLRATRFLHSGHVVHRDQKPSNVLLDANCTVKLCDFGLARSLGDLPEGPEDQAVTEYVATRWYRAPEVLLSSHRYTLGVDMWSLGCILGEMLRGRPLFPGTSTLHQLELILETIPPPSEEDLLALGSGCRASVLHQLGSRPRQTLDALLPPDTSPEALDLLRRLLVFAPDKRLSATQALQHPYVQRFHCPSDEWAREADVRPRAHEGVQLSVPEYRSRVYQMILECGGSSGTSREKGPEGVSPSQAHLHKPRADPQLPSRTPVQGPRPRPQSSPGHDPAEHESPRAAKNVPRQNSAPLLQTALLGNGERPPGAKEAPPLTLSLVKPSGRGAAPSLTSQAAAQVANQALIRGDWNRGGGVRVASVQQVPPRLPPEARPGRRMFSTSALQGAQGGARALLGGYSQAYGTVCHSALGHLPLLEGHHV

[3] = biological target: MAP/microtubule affinity-regulating kinase 3 (Homo sapiens) (UniProt P27448); experiment: Selectivity interaction (ActivX KiNativ screen (kinase selectivity in THP-1 cell lysates)) EUB0000639a MARK3; assay type: subcellular; conditions: lysate, at 0.2 µM
Sequence of MAP/microtubule affinity-regulating kinase 3 (Homo sapiens) (P27448 whole entry, looked up): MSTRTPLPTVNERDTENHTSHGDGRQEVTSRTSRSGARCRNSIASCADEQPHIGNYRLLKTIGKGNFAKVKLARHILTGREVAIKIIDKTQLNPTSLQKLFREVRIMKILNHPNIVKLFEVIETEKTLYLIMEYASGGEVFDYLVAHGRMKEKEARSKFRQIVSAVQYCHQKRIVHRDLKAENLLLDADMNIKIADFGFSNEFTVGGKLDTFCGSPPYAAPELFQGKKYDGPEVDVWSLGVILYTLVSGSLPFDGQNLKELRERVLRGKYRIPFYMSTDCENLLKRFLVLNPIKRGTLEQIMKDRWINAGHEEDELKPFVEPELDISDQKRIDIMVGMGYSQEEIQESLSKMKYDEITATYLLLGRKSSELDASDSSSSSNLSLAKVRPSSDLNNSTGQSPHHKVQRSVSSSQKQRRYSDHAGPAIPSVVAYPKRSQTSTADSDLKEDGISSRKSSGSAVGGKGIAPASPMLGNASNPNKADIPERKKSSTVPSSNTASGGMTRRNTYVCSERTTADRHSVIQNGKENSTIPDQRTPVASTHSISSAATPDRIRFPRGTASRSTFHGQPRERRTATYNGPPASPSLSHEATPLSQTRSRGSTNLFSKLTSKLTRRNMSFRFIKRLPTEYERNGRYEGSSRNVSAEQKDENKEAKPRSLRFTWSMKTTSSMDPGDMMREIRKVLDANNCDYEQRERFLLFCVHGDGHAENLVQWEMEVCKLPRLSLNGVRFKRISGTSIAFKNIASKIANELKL

[4] = biological target: Tyrosine-protein kinase receptor UFO (Homo sapiens) (UniProt P30530); experiment: Selectivity interaction (ActivX KiNativ screen (kinase selectivity in THP-1 cell lysates)) EUB0000639a AXL; assay type: subcellular; conditions: lysate
Sequence of Tyrosine-protein kinase receptor UFO (Homo sapiens) (P30530 whole entry): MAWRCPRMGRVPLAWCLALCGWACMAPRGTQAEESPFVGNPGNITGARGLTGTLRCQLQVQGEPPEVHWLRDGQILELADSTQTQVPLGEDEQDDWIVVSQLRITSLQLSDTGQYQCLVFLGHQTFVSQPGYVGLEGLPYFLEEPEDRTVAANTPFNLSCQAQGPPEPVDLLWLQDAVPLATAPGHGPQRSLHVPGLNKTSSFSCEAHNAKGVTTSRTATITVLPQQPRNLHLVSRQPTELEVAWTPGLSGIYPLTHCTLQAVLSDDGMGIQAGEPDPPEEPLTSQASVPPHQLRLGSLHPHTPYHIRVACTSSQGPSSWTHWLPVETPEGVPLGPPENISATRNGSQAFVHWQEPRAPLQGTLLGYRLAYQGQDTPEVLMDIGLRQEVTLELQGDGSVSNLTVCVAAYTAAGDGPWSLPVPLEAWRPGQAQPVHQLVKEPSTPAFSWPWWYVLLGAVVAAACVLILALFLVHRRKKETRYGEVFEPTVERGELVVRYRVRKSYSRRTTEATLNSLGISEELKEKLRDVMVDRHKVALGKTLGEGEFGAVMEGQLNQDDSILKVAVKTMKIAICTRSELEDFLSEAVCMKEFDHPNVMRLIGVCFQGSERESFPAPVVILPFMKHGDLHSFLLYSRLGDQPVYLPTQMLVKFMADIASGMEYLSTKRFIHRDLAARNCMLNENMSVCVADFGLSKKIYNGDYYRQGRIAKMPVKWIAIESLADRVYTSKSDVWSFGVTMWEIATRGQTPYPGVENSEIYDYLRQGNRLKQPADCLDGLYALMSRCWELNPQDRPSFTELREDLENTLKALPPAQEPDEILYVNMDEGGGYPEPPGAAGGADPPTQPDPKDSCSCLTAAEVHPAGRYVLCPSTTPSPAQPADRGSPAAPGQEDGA

[5] = biological target: T2, Rhodopsin kinase GRK7 (Homo sapiens) (UniProt Q8WTQ7); experiment: Selectivity interaction (KinomeScan (DiscoverX)) EUB0001049a GRK7; conditions: at 1 µM
T2 sequence (whole entry): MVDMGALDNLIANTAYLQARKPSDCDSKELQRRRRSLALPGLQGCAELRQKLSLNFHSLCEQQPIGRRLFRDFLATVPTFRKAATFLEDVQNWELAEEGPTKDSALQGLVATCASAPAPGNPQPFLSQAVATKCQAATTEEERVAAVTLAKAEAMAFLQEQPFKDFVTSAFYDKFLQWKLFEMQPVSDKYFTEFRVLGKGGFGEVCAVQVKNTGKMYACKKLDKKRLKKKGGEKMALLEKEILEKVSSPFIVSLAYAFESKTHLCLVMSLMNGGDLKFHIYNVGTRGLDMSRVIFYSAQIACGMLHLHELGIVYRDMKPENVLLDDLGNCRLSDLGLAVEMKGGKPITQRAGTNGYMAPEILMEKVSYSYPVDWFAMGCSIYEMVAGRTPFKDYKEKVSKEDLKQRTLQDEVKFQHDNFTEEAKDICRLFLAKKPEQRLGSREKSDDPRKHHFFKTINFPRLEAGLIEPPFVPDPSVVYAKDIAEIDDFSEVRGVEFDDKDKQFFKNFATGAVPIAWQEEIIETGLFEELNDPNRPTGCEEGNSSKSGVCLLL

[6] = biological target: T3, Serine/threonine-protein kinase Nek2 (Homo sapiens) (UniProt P51955); experiment: Selectivity interaction (Millipore kinase profiler) EUB0000124b NEK2; conditions: at 10 µM
T3 sequence (whole entry): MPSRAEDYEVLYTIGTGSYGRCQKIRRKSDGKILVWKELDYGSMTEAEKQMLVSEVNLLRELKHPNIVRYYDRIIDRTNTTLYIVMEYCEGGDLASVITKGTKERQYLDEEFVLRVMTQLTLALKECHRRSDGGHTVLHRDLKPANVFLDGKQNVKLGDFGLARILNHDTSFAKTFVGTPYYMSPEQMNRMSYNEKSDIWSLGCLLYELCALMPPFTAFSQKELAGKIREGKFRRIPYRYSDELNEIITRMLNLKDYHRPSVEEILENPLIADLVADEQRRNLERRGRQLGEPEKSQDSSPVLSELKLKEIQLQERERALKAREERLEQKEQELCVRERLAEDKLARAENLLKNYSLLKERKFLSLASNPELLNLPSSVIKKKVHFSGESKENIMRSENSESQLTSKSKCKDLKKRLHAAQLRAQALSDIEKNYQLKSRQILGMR

[7] = biological target: Serine/threonine-protein kinase pim-2 (Homo sapiens, UniProt Q9P1W9); experiment: Selectivity interaction (KinomeScan (DiscoverX)) EUB0000045b PIM2
Sequence of Serine/threonine-protein kinase pim-2 (Q9P1W9 whole entry, looked up): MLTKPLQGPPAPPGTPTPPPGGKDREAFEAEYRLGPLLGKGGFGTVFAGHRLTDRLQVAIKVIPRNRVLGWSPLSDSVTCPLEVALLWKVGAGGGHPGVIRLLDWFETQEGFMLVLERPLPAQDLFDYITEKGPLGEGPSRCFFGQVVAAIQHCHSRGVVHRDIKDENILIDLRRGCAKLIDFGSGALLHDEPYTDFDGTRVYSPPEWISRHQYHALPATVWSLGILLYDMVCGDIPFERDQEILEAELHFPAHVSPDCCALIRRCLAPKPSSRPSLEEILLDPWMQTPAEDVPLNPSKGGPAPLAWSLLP

[8] = biological target: Fibroblast growth factor receptor 3 (Homo sapiens, UniProt P22607); conditions: at 10 µM
Sequence of Fibroblast growth factor receptor 3 (P22607 23-806 limits assumed): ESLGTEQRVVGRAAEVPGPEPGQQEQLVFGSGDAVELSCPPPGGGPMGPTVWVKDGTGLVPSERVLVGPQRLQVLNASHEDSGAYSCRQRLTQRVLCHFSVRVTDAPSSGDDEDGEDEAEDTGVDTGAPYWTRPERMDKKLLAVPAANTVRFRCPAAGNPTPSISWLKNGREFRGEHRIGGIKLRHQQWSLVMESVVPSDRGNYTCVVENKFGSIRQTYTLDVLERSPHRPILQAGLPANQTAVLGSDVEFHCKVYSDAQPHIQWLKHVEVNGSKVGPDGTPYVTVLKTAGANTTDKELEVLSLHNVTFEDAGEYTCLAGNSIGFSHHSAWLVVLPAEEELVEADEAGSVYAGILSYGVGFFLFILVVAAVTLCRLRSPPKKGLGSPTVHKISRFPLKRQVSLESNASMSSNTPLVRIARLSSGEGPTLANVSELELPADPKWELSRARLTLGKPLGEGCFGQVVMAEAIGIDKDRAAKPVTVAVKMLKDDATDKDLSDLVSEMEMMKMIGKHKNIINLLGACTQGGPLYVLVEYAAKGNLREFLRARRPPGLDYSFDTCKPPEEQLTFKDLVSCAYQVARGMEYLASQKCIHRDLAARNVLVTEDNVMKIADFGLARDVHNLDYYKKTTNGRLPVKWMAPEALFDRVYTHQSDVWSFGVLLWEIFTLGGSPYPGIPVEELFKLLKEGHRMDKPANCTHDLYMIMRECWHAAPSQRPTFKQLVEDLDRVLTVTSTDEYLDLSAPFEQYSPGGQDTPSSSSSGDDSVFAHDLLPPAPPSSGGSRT

Sequence of Vascular endothelial growth factor receptor 2 (P35968 whole entry): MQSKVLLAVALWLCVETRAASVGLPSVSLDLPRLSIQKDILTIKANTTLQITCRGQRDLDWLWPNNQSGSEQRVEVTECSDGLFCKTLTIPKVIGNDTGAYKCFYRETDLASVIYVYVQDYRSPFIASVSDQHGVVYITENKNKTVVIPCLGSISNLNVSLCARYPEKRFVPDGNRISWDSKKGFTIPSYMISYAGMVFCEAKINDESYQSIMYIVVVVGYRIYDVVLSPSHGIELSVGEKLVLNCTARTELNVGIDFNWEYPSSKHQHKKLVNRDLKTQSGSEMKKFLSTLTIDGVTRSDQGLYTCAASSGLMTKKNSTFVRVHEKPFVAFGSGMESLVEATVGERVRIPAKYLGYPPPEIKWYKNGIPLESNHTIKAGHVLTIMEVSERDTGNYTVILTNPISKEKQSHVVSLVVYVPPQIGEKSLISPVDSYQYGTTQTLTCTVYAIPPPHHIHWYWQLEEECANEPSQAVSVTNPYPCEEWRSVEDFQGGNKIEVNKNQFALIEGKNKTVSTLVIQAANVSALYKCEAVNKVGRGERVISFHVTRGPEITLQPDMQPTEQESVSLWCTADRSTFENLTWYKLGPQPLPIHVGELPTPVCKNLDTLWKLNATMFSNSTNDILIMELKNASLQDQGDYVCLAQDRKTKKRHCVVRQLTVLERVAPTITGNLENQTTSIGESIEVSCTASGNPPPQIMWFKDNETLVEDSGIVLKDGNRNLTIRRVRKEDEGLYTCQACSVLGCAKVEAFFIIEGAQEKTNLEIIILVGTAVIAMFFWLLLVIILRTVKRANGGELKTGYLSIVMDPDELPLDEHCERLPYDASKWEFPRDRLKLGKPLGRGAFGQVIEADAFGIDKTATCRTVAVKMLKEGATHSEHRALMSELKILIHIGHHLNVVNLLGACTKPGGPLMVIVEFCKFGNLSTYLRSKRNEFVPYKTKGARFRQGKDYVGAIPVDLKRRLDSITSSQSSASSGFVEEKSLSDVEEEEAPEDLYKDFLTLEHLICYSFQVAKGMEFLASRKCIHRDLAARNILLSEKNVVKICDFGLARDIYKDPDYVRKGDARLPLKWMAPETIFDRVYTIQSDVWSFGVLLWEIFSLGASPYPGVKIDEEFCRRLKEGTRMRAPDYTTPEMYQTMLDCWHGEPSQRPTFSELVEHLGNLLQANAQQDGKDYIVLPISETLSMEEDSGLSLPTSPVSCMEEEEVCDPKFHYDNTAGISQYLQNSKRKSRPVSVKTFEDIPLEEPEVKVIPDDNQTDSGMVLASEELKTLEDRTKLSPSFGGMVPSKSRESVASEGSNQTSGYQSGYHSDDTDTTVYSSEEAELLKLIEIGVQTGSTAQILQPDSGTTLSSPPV

SMILES: CNC(=O)Nc1ccc(-c2nc(N3CC4CCC(C3)O4)c3cnn(C4CCC5(CC4)OCCO5)c3n2)cc1
% of control [1]: 76%

SMILES: CCN(CC)CCCCNc1ncc2cc(-c3cc(OC)cc(OC)c3)c(NC(=O)NC(C)(C)C)nc2n1
% of control [2]: 100%

% of inhibition [3]: 19.8% | % of inhibition ([4]; at 0.01 µM): 0.7% | % of inhibition ([4]; at 0.04 µM): -4.1% | % of inhibition ([4]; at 0.2 µM): 7.8% | % of inhibition ([4]; at 1 µM): 27.6% | % of inhibition ([4]; at 5 µM): 63.2%
SMILES: CC[C@@H]1[C@H](F)C(=O)N[C@@H]1COc1nccc2cc(C(N)=O)c(OC)cc12 [ZIMLOVISERTIB]

SMILES: COc1cc(Nc2nc(C)cc(-c3cnn4nc(OC)ccc34)n2)cc(C(F)(F)F)c1
% of control [5]: 83%

% of control [6]: 119%
SMILES: CC(=O)Nc1cccc(-n2c(=O)n(C3CC3)c(=O)c3c(Nc4ccc(I)cc4F)n(C)c(=O)c(C)c32)c1

SMILES: C=CC(=O)Nc1cc(-n2c(=O)ccc3cnc4ccc(-c5ccc(NS(C)(=O)=O)cc5)cc4c32)ccc1C
% of control ([7]; at 1 µM): 66% | % of control ([7]; at 10 µM): 100%

SMILES: Cc1cc([C@@H](C)Nc2ccccc2C(=O)O)c2nc(N3CCOCC3)cc(=O)n2c1 [AZD-6482]
% of control [8]: 83%
